Measurements as given in article PMC10762035, “Molecular basis of human trace amine-associated receptor 1 activation” (Nature Communications, 2024).
Where a chain is given by its changes, count along the chain named. Values joined by “and” are separate entries in the source; they are usually repeats but may differ in a detail not shown here. Equal values may be shown once.

Columns and labels:
Type in all cases: cell-based
hTA1 V184P = molecular target: T1, hTA1 V184P (Homo sapiens, UniProt Q96RJ0, V184P); test: GloSensor cAMP accumulation assay, V184P mutant
T1 construct: expressed in transfected cells; host or cells: HEK293T
T1 sequence (Q96RJ0 1-339 V184P): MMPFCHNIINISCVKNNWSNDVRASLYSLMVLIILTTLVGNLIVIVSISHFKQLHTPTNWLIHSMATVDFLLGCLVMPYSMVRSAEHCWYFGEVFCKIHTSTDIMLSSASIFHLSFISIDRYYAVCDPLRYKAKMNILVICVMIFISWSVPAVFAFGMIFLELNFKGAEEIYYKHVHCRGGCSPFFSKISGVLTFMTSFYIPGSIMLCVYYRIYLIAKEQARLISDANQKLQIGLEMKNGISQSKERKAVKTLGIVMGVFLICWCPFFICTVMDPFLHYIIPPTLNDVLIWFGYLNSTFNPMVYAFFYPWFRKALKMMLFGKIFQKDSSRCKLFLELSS

hTA1 I290Y = molecular target: T2, hTA1 I290Y (Homo sapiens, UniProt Q96RJ0, I290Y); test: GloSensor cAMP accumulation assay, I290Y mutant; conditions: for Normalized Luminescence Counts for Concentration Response Curves: I120Y, log[Agonist], single replicates; for cAMP accumulation response, normalized (concentration-response source data, single replicate values): hTA1 I290Y (N=3), log[Compound];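 on cAMP accumulation response, normalized (concentration-response source data, single replicate values): normalized to the maximum response of β-PEA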
T2 construct: expressed in transfected cells; host or cells: HEK293T
T2 sequence (Q96RJ0 1-339 I290Y): T1 sequence (Q96RJ0 1-339 V184P) with P184V, I290Y

hTA1 F195T = molecular target: T3, hTA1 F195T (Homo sapiens, UniProt Q96RJ0, F195T); test: GloSensor cAMP accumulation assay, F195T mutant;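 further: cells transiently co-expressing HA-FLAG-tagged hTA1 and the GloSensor cAMP biosensor, luminescence read 30 min after agonist addition at room temperature, concentration-response fitted by nonlinear regression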
T3 construct: expressed in transfected cells; host or cells: HEK293T
T3 sequence (Q96RJ0 1-339 F195T): T1 sequence (Q96RJ0 1-339 V184P) with P184V, F195T

[1] = hTA1 V184P mutant minus WT average

NCCc1ccccc1 [β-PEA, β-phenethylamine]
cAMP accumulation response, single replicate values (source data, Supplementary Figure 5) (hTA1 V184P; hTA1 V184P (N=2), log[Compound], M = -12.522): 2.175 and 1.496 and 1.205 and 0.08625 and 0.1962 and -0.7201
ΔEmax values (each mutant value - WT average), Mean (hTA1 V184P; [1]): 0
ΔpEC50 values (each mutant value - WT average), Mean (hTA1 V184P; [1]): -0.7478 and -0.4527
pEC50 values, Mean (hTA1 V184P; hTA1 V184P mutant, Figure 3B source data, each grid row a separate experiment, 3 replicates): 6.346 and 6.641
Emax values, Mean (hTA1 V184P; hTA1 V184P mutant, β-PEA set to 100, each grid row a separate experiment, 3 replicates): 100
Normalized Luminescence Counts for Concentration Response Curves (hTA1 I290Y; M -5): 106.77 and 91.3809 and 125.546 and 108.456 and 111.021 and 107.357 and 101.946 and 94.0497 and 113.225
Normalized Luminescence Counts for Concentration Response Curves (hTA1 I290Y; M -6): 87.3796 and 52.2914 and 77.8381 and 75.4765 and 68.8807 and 65.9492 and 71.4902 and 68.1063 and 59.0825
Normalized Luminescence Counts for Concentration Response Curves (hTA1 I290Y; M -7): 31.0537 and 19.6655 and 31.3615 and 25.6411 and 22.3431 and 26.3739 and 25.2433 and 15.0915 and 12.8355
Normalized Luminescence Counts for Concentration Response Curves (hTA1 I290Y; M -8): 5.199 (2×) and 2.121 and 24.1753 and 3.655 and 1.823 and 1.556 and -1.828 and -0.7002
Normalized Luminescence Counts for Concentration Response Curves (hTA1 I290Y; M -9): -0.341 (2×) and -2.496 and 2.189 and -2.575 and -4.773 and 0.4278 and -1.828 and -2.956
Normalized Luminescence Counts for Concentration Response Curves (hTA1 I290Y; M -10): -0.0332 (2×) and -1.88 and -5.873 and -4.407 and -4.773 and 2.684 and -1.828 and -0.7002
Normalized Luminescence Counts for Concentration Response Curves (hTA1 I290Y; M -11): 0.5824 (2×) and -1.264 and -5.506 and -5.14 and -3.674 and -1.828 (3×)
Normalized Luminescence Counts for Concentration Response Curves (hTA1 I290Y; M -12): 1.506 and -1.88 and -0.341 and -3.674 and -4.773 and 8.4185 and 1.556 (2×) and 2.684
Span ± SEM (Emax normalized to β-PEA) (hTA1 I290Y; I290Y): 100 ± 3.64
pEC50 ± SEM (hTA1 I290Y; I290Y): 6.43 ± 0.07
ΔEmax values (each mutant value - WT average) (hTA1 I290Y; I290Y minus WT average): 0
ΔpEC50 values (each mutant value - WT average), Mean (hTA1 I290Y; I290Y minus WT average): -0.6326 and -0.5624 and -0.7969
EC50 (hTA1 I290Y; I290Y, read-out: EC50): 372 nM
pEC50 values, Mean (hTA1 I290Y; I290Y, single experiments (3 replicates each)): 6.461 and 6.531 and 6.297
Emax values, Mean (hTA1 I290Y; I290Y, single experiments (3 replicates each), β-PEA = 100): 100
cAMP accumulation response, normalized (concentration-response source data, single replicate values) (hTA1 I290Y; M = -5): 106.77 and 91.3809 and 125.546 and 108.456 and 111.021 and 107.357 and 101.946 and 94.0497 and 113.225
cAMP accumulation response, normalized (concentration-response source data, single replicate values) (hTA1 I290Y; M = -5.522): 77.8381 and 72.2978 and 82.1471 and 73.6443 and 85.0039 and 85.3703 and 81.642 and 86.1539 and 57.9545
cAMP accumulation response, normalized (concentration-response source data, single replicate values) (hTA1 I290Y; M = -6): 87.3796 and 52.2914 and 77.8381 and 75.4765 and 68.8807 and 65.9492 and 71.4902 and 68.1063 and 59.0825
cAMP accumulation response, normalized (concentration-response source data, single replicate values) (hTA1 I290Y; M = -6.522): 54.4459 and 35.6706 and 50.4446 and 60.0862 and 56.7882 and 48.7266 and 47.8027 and 37.651 (2×)
cAMP accumulation response, normalized (concentration-response source data, single replicate values) (hTA1 I290Y; M = -7): 31.0537 and 19.6655 and 31.3615 and 25.6411 and 22.3431 and 26.3739 and 25.2433 and 15.0915 and 12.8355
cAMP accumulation response, normalized (concentration-response source data, single replicate values) (hTA1 I290Y; M = -7.522): 12.5863 and 7.662 and 9.508 and 11.7164 and 13.1822 and 20.5109 and 7.196 and 4.9397 and 3.812
cAMP accumulation response, normalized (concentration-response source data, single replicate values) (hTA1 I290Y; M = -8): 5.199 (2×) and 2.121 and 24.1753 and 3.655 and 1.823 and 1.556 and -1.828 and -0.7002
cAMP accumulation response, normalized (concentration-response source data, single replicate values) (hTA1 I290Y; M = -8.522): 0.8902 and -1.264 and -0.0332 and -1.109 and -1.842 and -4.04 and 0.4278 and -2.956 and -0.7002
cAMP accumulation response, normalized (concentration-response source data, single replicate values) (hTA1 I290Y; M = -9): -0.341 (2×) and -2.496 and 2.189 and -2.575 and -4.773 and 0.4278 and -1.828 and -2.956
cAMP accumulation response, normalized (concentration-response source data, single replicate values) (hTA1 I290Y; M = -9.522): -0.9566 and -2.803 and -1.264 and -1.109 and -0.7424 and -1.475 and 0.4278 and -4.0841 and -0.7002
cAMP accumulation response, normalized (concentration-response source data, single replicate values) (hTA1 I290Y; M = -10): -0.0332 (2×) and -1.88 and -5.873 and -4.407 and -4.773 and 2.684 and -1.828 and -0.7002
cAMP accumulation response, normalized (concentration-response source data, single replicate values) (hTA1 I290Y; M = -10.522): -0.6488
increase in potency vs wild type (hTA1 F195T; F195T): ~ 3.5 fold
ΔpEC50 values (each mutant value - WT average), Mean (hTA1 F195T; F195T mutant minus WT average, Figure 5B): 0.6087 and 0.4606
pEC50 values, Mean (hTA1 F195T; F195T mutant, Figure 5B, each row one independent experiment (3 replicates)): 7.7022 and 7.554
Emax values, Mean (hTA1 F195T; F195T mutant, Figure 5B, β-PEA = 100, each row one independent experiment (3 replicates)): 100
Span ± SEM (Emax normalized to β-PEA) (hTA1 F195T; F195T, n=2): 100
pEC50 ± SEM (hTA1 F195T; F195T, n=2): 7.63 ± 0.07
EC50 (hTA1 F195T; F195T, n=2, read-out: EC50): 23.5 nM
